Data: paper PMC8767159, “Multiparameter Optimization of Trypanocidal Cruzain Inhibitors With In Vivo Activity and Favorable Pharmacokinetics” (Frontiers in Pharmacology, 2022)

Key:
[1] = Experimental distribution coefficient (eLogD) by LC retention time; format: physicochemical; details: for chromatographic logD: C18 column (LC retention time)
Method: For the eLogD assays ([Waring, 2010]), each compound (5 μl) from a 5 mM stock solution was diluted in 245 μl of a solution containing buffers A (5% MeOH, 10 mM ammonium acetate, pH 7.4) and B (100% MeOH, pH 7.4) (50:50). Nine control compounds with known eLogD and column retention times (acyclovir, atenolol, antipyrine, fluconazole, metoprolol, carbamazepine, ketoconazole, tolnaftate, and amiodarone; eLogD values ranging from −1.86 to 6.1) were subjected to LC-MS/MS in triplicate before and after the analysis of the test compounds. Retention times were recorded for each control and test compound in a C18 column. The retention time of each control compound was plotted against the respective eLogD values described in the literature ([Lombardo et al., 2002]; [Lombardo et al., 2004]; [Alelyunas et al., 2010]). The resulting linear equation (y = mx + b) was used to calculate the eLogD values of the test compounds, in which x is the retention time in minutes and y is the eLogD value.

[2] = In vitro metabolic stability in human liver microsomes; format: in vitro ADME; details: for CLint scaled at 5 µM: human, liver microsomes
Method: (§1) Isolated mouse (BD Gentest, Bedford, MA) and human liver microsomes (XenoTech, Kansas City, KS) ([Plant, 2004]) were added at a final concentration of 0.25 mg/ml to a solution containing 40 mM dibasic potassium phosphate and 10 mM monobasic potassium phosphate. Stock solutions of compounds at 5 mM were prepared in 100% DMSO. A 50:50 quenching solution of acetonitrile (ACN) and methanol (MeOH) was prepared. An NADPH solution was prepared at 10 mM. The preparations containing the microsomes were added to each well of the incubation plate (450 µl), which was then heated to 37°C for 10 min. The compounds were added to the respective wells of the test plate (2 µl). Then, 300 µl of the microsome preparation was added to each well of the test plate. The test plate was heated under gentle rotation for 5 min at 37°C. Next, 90 µl of the mixture contained in the test plate was added to the incubation plate, making a final volume of 540 µl. Samples were collected at the following incubation times: 0, 5, 10, 15, 20, and 30 min. To the 0 min sample plate, quenching solution (180 µl), NADPH (6 µl), and the incubation plate mixture (54 µl) were added to each well. The sample plate was then sealed, homogenized, and stored at 4°C. Then, 54 µl of the NADPH solution was added to the incubation plate, which was homogenized. Before the collection of each sample at the established times, 45 µl of the quenching solution was added to each well of the corresponding sample plates. After reaching the incubation times, 60 µl of the mixture contained in the incubation plate was added to the corresponding sample plates. The sample plates were then sealed and stored at 4°C. After the collection of the last sample (30 min), all sample plates were centrifuged at 3,800 rpm for 30 min. The supernatant from each well was collected and transferred to clean plates for mass spectrometry. Five to 10 µl of each sample was injected into an AB Sciex Triple Quad 5500 LC-MS/MS instrument.
(§2) For the biotransformation experiments and analysis of metabolites in microsomes, an Ultra-High-Pressure Liquid Chromatography instrument (UHPLC, Thermo Accela, Waltham, MA) ([Spaggiari et al., 2014]) connected to an automatic sample injector and a 1250 series pump was used. The UHPLC system was connected to a Thermo Fisher (Waltham, MA) LTQ Orbitrap mass spectrometer. For all other analyses, an AB Sciex Triple Quad 5500 coupled to a UHPLC equipped with a UV 1290 diode detector (Agilent Technologies, Santa Clara, CA) and a CTC PAL self-collecting system (LEAP Technologies, Carrboro, NC) was used. Q1 MS positive ion mode (300–500 Da) was used to detect the ions of the parent compounds. The UV detector was operated in spectral mode (250–280 nm). A Hypersil Gold C18 (2.1 mm × 100 mm, 1.9 µm, Thermo Fisher) HPLC column was used. The mobile phases were solvent A (0.1% formic acid in water) and solvent B (0.1% formic acid in ACN). The flow was adjusted to 0.55 ml/min, and the injection volume was adjusted to […]. The gradient started with 1% solvent B for 0.4 min, reached 40% (solvent B) in 2.3 min and 95% (solvent B) in 0.67 min, was maintained for 0.5 min, and returned to the initial condition of 1%. This condition was maintained for 1 min before injection of the next sample. The peak area ratio (peak area of the test compounds/peak area of the control compounds) was converted to the percentage of remaining compound, with the 0 min time point ratio set to 100%. T½ and CLint were calculated from the percentage of remaining compound versus the incubation time. From the resulting function, the slope (k) was determined. The equations T1/2 (min) = ln(2)/k and CLint in vitro (μL/min/mg) = k*1000/0.25 were used to determine T½ and CLint.

[3] = In vitro metabolic stability in mouse liver microsomes; format: in vitro ADME; details: mouse, liver microsomes
Method: as §1, §2

[4] = Parallel artificial membrane permeability assay (PAMPA); format: in vitro ADME; set-up: PAMPA: unit: 1e-6 cm/s; details: for PAMPA: unit not given
Method: The permeability of the compounds was assessed using the PAMPA method ([Yu et al., 2015]). The test compounds were dissolved in DMSO to a concentration of 5 mM. Next, the compounds were diluted in a stock plate in saline phosphate buffer (PBS), pH 6.5, containing 1% DMSO to a concentration of 1 µM. Then, 300 µl of each test compound was added to the donor plate. Afterward, 200 µl of PBS buffer, pH 7.4, was added to the acceptor plate. The donor plate was attached to the acceptor plate. The assembled acceptor-donor plate was then incubated at 37°C for 5 h under gentle agitation. To analyze the concentration of the compounds by mass spectrometry, two analysis plates (one for the donor and another for the acceptor plate) containing 300 μl of MEOH:ACN 50:50 were prepared. To the donor analysis plate, 90 µl of PBS, pH 6.5, and 10 µl of the content of the donor plate were added. For the acceptor analysis plate, 100 µl of the content of the acceptor plate was added. To monitor any potential decomposition/intrinsic instability of the test compounds in solution, samples from the stock plate were subjected to LC-MS/MS. The compounds that presented Pe ≥ 1.5 × 10^−6 cm/s were classified as permeable, while compounds that presented Pe < 1.5 × 10^−6 cm/s were considered poorly permeable or nonpermeable.

[5] = Table S5, CLint/fu, read-out: CLint_u (L/h/kg) Human (converted)
[6] = Table S5, read-out: CLint (L/h/kg) Human (converted)
[7] = Table S5, CLint/fu, read-out: CLint_u (L/h/kg) Mouse (converted)
[8] = Table S5, read-out: CLint (L/h/kg) Mouse (converted)
[9] = PAMPA, Table 3, donor pH 6.5, acceptor pH 7.4, 5 h

Row | Compound | chromatographic logD ([1]; pH 7.4, Table 3, pH 7.4) | eLogD ([1]; Table S5) | CLint scaled at 5 µM [2, 5] | CLint scaled at 5 µM [2, 6] | CLint scaled at 5 µM [3, 7] | CLint scaled at 5 µM [3, 8] | Papp at 5 h, 1 µM [4, 9] | Papp at 5 h, 1 µM ([4]; Table S5, unit inferred) | chromatographic logD ([1]; pH 7.4, Table S5) | eLogD ([1]; Table 3, pH 7.4) | PAMPA ([4]; Table S5) | chromatographic logD ([1]; pH 7.4, Table 5) | CLint scaled at 5 µM ([2]; Table 5, CLint/fu, read-out: CLint_u (L/h/kg) human (converted)) | CLint scaled at 5 µM ([2]; Table 5, read-out: CLint (L/h/kg) human (converted)) | CLint scaled at 5 µM ([3]; Table 5, CLint/fu, read-out: CLint_u (L/h/kg) mouse (converted)) | CLint scaled at 5 µM ([3]; Table 5, read-out: CLint (L/h/kg) mouse (converted)) | Papp at 5 h, 1 µM ([4]; PAMPA, Table 5) | CLint_u (L/h/kg) Human ([2]; Table S5, CLint/fu)
1 | Cn1c(CCNC(=O)COc2ccccc2)nc2ccccc21 [Compound 25] | 2.93 | 2.93 | 4.61 L/h/kg | 4.57 L/h/kg | 123 L/h/kg | 122 L/h/kg | 1.46 ×10⁻⁶ cm/s | 6.55 ×10⁻⁶ cm/s | – | – | – | – | – | – | – | – | – | –
2 | O=C(COc1ccc2c(C(=O)O)cccc2c1)NCCc1nc2ccccc2[nH]1 [Compound 15] | – | – | < 1.5 L/h/kg | < 1.5 L/h/kg | 12.9 L/h/kg | 12.9 L/h/kg | – | – | 1.31 | – | – | – | – | – | – | – | – | –
3 | O=C(COc1ccccc1)NCCc1nc2ccccc2n1-c1ccccc1 [Compound 30] | – | – | 92.4 L/h/kg | 58.1 L/h/kg | 1130 L/h/kg | 713 L/h/kg | – | 17.8 ×10⁻⁶ cm/s | 4.04 | – | – | – | – | – | – | – | – | –
4 | O=C(COc1ccc2ccc(O)cc2c1)NCCc1nc2ccccc2[nH]1 [Compound 11] | – | 3.37 | 14.2 L/h/kg | 9.48 L/h/kg | 68.5 L/h/kg | 45.7 L/h/kg | 0.17 ×10⁻⁶ cm/s | 0.13 ×10⁻⁶ cm/s | – | 2.26 | – | – | – | – | – | – | – | –
5 | O=C(COc1ccccc1)NCCc1nc2ccccc2n1Cc1ccccc1 [Compound 26] | 4.06 | 4.06 | 196 L/h/kg | 120 L/h/kg | 1010 L/h/kg | 620 L/h/kg | 8.72 ×10⁻⁶ cm/s | – | – | – | 8.72 | – | – | – | – | – | – | –
6 | O=C(COc1cccc(NC(=O)CCCO)c1)NCCc1nc2ccccc2[nH]1 [Compound 7] | – | – | < 1.5 L/h/kg | – | 8.19 L/h/kg | 8.19 L/h/kg | – | 0.03 ×10⁻⁶ cm/s | 2.23 | – | – | – | – | – | – | – | – | –
7 | O=C(CCc1ccccc1Br)NCCc1nc2ccccc2[nH]1 [Compound 36] | – | – | – | – | – | – | – | – | – | – | – | 3.8 | 38.2 L/h/kg | 28.8 L/h/kg | 935 L/h/kg | 705 L/h/kg | 4.7 ×10⁻⁶ cm/s | –
8 | CC(=O)Nc1cccc(OCC(=O)NCCc2nc3ccccc3[nH]2)c1 [Compound 3] | 2.26 | 2.26 | 6.9 L/h/kg | 6.9 L/h/kg | 10.6 L/h/kg | 10.6 L/h/kg | 0.17 ×10⁻⁶ cm/s | – | – | – | 0.17 | – | – | – | – | – | – | 6.90 L/h/kg
9 | O=C(COc1cccc(N2C(=O)CCC2=O)c1)NCCc1nc2ccccc2[nH]1 [Compound 6] | – | – | 3.54 L/h/kg | 3.54 L/h/kg | 217 L/h/kg | 217 L/h/kg | – | 0.2 ×10⁻⁶ cm/s | 1.8 | – | – | – | – | – | – | – | – | 3.54 L/h/kg
10 | O=C(COc1ccccc1Br)NCCc1nc2ccccc2n1CCOc1ccccc1Br [Compound 23] | – | – | 3370 L/h/kg | 136 L/h/kg | – | 300 L/h/kg | – | 0.08 ×10⁻⁶ cm/s | 4.69 | – | – | – | – | – | – | – | – | –
11 | O=C(COc1ccccc1)NCCc1nc2ccccc2n1CCOCc1ccccc1 [Compound 21] | – | – | 496 L/h/kg | 235 L/h/kg | 1790 L/h/kg | 847 L/h/kg | – | 3.98 ×10⁻⁶ cm/s | 4.24 | – | – | – | – | – | – | – | – | –
12 | O=C(COc1ccc(NC(=O)CCCO)cc1)NCCc1nc2ccccc2[nH]1 [Compound 5] | – | – | 1.53 L/h/kg | 1.5 L/h/kg | 4.51 L/h/kg | 4.43 L/h/kg | – | 0.02 ×10⁻⁶ cm/s | 1.83 | – | – | – | – | – | – | – | – | –
13 | O=C(COc1ccccc1)NCCc1nc2ccccc2[nH]1 [Compound 1] | 2.9 | 2.90 | < 1.5 L/h/kg | < 1.5 L/h/kg | 72.1 L/h/kg | 72.1 L/h/kg | 4.21 ×10⁻⁶ cm/s | – | – | – | 4.21 | – | – | – | – | – | – | –
14 | O=C(COc1ccc2cc(O)ccc2c1)NCCc1nc2ccccc2[nH]1 [Compound 10] | 3.17 | 3.17 | 8.15 L/h/kg | 6.66 L/h/kg | 32.3 L/h/kg | 26.4 L/h/kg | 0.21 ×10⁻⁶ cm/s | – | – | – | 0.21 | – | – | – | – | – | – | –
